Measured values published in patent publication US9447091B2, “Protein kinase inhibitors” (Orion Corporation, priority 2011, dated 2016).

How the values were obtained:
FGFR1 kinase = FGFR1 kinase (Homo sapiens (Human), UniProt P11362); assay: FGFR1 TR-FRET kinase assay; type: biochemical; settings: for inhibition at 1 µM: 1000 nM compound; for IC50: 13 μM ATP, read-out: IC50 of FGFR1 inhibition
Experimental: Compounds were screened in the TR-FRET assay with FGFR1 kinase. 5 ng of FGFR1 [Upstate, USA] kinase was used for assay. The compound was incubated with the kinase for 30 minutes at RT. After the incubation, substrate mix [40 nM Ultra light poly GT (Perkin Elmer, USA) and 13 μM ATP (Sigma)] was added. The above reaction was stopped by the addition of 40 mM EDTA after the […] kinase reaction. The Eu-labelled antiphospho-tyrosine antibody [Perkin Elmer, USA] was added at 0.5 nM and the fluorescence emission at 615 nm/665 nm [excitation at 340 nm] was measured. The compounds were initially screened at 100 nM and 1 μM concentrations. The compounds with >50% inhibition at 100 nM of FGFR1 were taken for the full dose response studies. The final DMSO concentration in the assay was 1%. For IC50 determination, ⅓^rd serial dilution was made from the 20 mM DMSO stock solution. 2 μl of these were transferred to the test wells containing 20 μl of the reaction mixture [total reaction volume 20 μl]. The fluorescence was measured in Perkin Elmer Wallac 1420 Multilabel Counter Victor 3. The IC50 was determined by fitting the dose response data to sigmoidal curve fitting equation using GraphPad Prism software V5.

c-Met kinase = c-Met kinase (Homo sapiens (Human), UniProt P08581); assay: c-Met TR-FRET kinase assay; type: biochemical; settings: 1000 nM compound
Experimental: Compounds were screened in the TR-FRET assay with c-Met kinase. 0.1 ng of c-Met [expressed in-house] kinase was used for assay. The compound was incubated with the kinase for 60 min at RT. After the incubation, substrate mix [40 nM Ultra light poly GT (Perkin Elmer, USA) and 10 μM ATP (Sigma)] was added. The above reaction was stopped by the addition of 40 mM EDTA after the 30 min kinase reaction. The Eu-labelled antiphospho-tyrosine antibody [Perkin Elmer, USA] was added at 0.5 nM and the fluorescence emission at 615 nm/665 nm [excitation at 340 nm] was measured. The compounds were initially screened at 100 nM and 1 μM concentrations. The compounds with >50% inhibition at 100 nM of c-Met were taken for the full dose response studies. The final DMSO concentration in the assay was 1%. For IC50 determination, ⅓rd serial dilution was made from the 20 mM DMSO stock solution. 2 μl of these were transferred to the test wells containing 20 μl reaction mixture [total reaction volume 20 μl]. The fluorescence was measured in Perkin Elmer Wallac 1420 Multilabel Counter Victor 3. The IC50 was determined by fitting the dose response data to sigmoidal curve fitting equation using GraphPad Prism software V5.

c-Met kinase, sequence (P08581 25-1390): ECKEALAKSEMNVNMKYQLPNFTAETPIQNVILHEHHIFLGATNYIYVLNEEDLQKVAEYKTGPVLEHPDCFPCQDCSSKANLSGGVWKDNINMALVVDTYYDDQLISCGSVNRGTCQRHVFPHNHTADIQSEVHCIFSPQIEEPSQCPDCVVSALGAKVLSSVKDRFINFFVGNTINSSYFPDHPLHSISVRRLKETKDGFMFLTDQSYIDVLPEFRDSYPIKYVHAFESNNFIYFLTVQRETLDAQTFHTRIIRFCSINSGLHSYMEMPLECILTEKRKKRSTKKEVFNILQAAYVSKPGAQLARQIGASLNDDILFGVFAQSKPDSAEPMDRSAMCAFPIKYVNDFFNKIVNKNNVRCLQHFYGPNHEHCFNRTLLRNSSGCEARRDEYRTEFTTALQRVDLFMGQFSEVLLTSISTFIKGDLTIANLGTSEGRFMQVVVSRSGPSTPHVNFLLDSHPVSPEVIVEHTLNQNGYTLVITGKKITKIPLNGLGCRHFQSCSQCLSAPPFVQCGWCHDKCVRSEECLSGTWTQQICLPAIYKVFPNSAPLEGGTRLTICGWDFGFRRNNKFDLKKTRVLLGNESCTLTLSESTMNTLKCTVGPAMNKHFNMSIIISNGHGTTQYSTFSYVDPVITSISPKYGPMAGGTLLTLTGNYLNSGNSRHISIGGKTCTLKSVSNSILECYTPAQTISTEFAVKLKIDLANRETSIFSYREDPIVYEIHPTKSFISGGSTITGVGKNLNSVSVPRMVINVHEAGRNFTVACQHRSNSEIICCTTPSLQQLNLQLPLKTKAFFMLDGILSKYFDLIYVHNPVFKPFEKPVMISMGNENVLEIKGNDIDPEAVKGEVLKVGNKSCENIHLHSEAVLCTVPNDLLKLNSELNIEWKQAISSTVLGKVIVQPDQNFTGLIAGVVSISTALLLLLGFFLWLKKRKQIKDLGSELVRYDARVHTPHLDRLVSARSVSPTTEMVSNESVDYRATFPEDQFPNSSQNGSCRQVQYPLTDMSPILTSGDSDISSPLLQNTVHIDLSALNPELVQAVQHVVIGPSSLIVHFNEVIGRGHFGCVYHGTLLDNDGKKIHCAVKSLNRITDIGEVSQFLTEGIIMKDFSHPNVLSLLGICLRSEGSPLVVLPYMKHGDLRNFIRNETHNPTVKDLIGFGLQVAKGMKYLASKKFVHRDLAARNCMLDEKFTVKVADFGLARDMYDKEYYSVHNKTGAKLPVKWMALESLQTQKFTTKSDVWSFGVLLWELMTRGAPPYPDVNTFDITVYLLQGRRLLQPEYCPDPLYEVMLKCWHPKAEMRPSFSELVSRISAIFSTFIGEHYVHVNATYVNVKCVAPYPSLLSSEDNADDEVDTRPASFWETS
FGFR1 kinase, sequence (P11362 22-822): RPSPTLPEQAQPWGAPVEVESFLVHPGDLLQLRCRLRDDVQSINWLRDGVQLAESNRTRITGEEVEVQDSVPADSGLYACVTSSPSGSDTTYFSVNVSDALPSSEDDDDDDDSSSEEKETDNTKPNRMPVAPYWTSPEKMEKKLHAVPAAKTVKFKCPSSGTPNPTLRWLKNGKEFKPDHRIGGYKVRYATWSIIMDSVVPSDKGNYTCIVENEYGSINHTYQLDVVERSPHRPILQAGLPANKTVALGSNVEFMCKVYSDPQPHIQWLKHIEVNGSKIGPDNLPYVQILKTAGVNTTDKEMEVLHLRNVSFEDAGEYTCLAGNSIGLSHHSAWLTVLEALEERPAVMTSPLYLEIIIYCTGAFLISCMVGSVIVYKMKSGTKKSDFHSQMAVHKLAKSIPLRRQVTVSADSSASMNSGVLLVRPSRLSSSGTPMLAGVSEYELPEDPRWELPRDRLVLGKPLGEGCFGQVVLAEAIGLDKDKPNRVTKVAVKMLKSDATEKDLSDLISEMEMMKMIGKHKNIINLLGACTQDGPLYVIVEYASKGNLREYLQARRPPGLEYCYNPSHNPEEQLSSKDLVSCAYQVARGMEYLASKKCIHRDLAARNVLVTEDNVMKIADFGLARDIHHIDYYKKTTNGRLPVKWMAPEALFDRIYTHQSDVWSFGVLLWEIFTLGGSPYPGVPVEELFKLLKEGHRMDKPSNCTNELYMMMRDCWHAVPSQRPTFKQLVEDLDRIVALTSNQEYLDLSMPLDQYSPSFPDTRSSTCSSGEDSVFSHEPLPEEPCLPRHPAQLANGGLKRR

Row | SMILES | inhibition at 1 µM (FGFR1 kinase) | IC50 (FGFR1 kinase) | inhibition at 1 µM (c-Met kinase)
1 | CCS(=O)(=O)Nc1cc(-c2ccc(F)cc2F)cc(-n2cnc3cc(-c4cn(CCN5CCOCC5)nn4)ccc32)c1 [Example 49, N-(2′,4′-difluoro-5-(5-(1-(2-morpholinoethyl)-1H-1,2,3-triazol-4-yl)-1H-benzo[d]imidazol-1-yl)biphenyl-3-yl)ethanesulfonamide] | 98% | 3.4 nM | 9%
2 | COc1ccc(-c2ccc3c(c2)ncn3-c2cc(NC(C)=O)cc(-c3ccc(F)cc3)c2)cn1 [Example 69, N-(4′-fluoro-5-(5-(6-methoxypyridin-3-yl)-1H-benzo[d]imidazol-1-yl)biphenyl-3-yl)acetamide] | 87% | 22 nM | -2%
3 | CC(=O)Nc1cc(-c2ccc(F)cc2)cc(-n2cnc3cc(-n4cccn4)ccc32)c1 [Example 70, N-(5-(5-(1H-pyrazol-1-yl)-1H-benzo[d]imidazol-1-yl)-4′-fluorobiphenyl-3-yl)-acetamide] | 99% | 10 nM | 0%
4 | CCS(=O)(=O)Nc1cc(-c2ccc(F)cc2)cc(-n2cnc3cc(-n4cccn4)ccc32)c1 [Example 72, N-(5-(5-(1H-pyrazol-1-yl)-1H-benzo[d]imidazol-1-yl)-4′-fluorobiphenyl-3-yl)-ethanesulfonamide] | 98% | 32 nM | 11%
5 | CC(=O)Nc1cc(-c2ccc(C)o2)cc(-n2cnc3cc(-c4cnn(CCN(C)C)c4)ccc32)c1 [Example 82, N-(3-(5-(1-(2-(dimethylamino)ethyl)-1H-pyrazol-4-yl)-1H-benzo[d]imidazol-1-yl)-5-(5-methylfuran-2-yl)phenyl)acetamide] | 96% | 16 nM | 15%
6 | CC(=O)Nc1cc(-c2ccc(C)o2)cc(-n2cnc3cc(-c4cnn(CCN5CCOCC5)c4)ccc32)c1 [Example 83, N-(3-(5-methylfuran-2-yl)-5-(5-(1-(2-morpholinoethyl)-1H-pyrazol-4-yl)-1H-benzo[d]imidazol-1-yl)phenyl)acetamide] | 95% | 37 nM | 5%
7 | CC(=O)Nc1cc(-n2cccc2)cc(-n2cnc3cc(-c4cn(CCC(C)(C)O)nn4)ccc32)c1 [Example 112, N-(3-(5-(1-(3-hydroxy-3-methylbutyl)-1H-1,2,3-triazol-4-yl)-1H-benzo[d]-imidazol-1-yl)-5-(1H-pyrrol-1-yl)phenyl)acetamide] | 97% | 1.8 nM | 0%
8 | Cn1cc(-c2ccc3c(c2)ncn3-c2cc(NS(=O)(=O)N3CCCCC3)cc(-n3cccn3)c2)cn1 [Example 119, N-(3-(5-(1-methyl-1H-pyrazol-4-yl)-1H-benzo[d]imidazol-1-yl)-5-(1H-pyrazol-1-yl)phenyl)piperidine-1-sulfonamide] | 94% | 83 nM | 23%
9 | O=C(NCc1ccco1)Nc1cc(-n2cccn2)cc(-n2cnc3cc(-n4cccn4)ccc32)c1 [Example 123, 1-(3-(5-(1H-pyrazol-1-yl)-1H-benzo[d]imidazol-1-yl)-5-(1H-pyrazol-1-yl)-phenyl)-3-(furan-2-ylmethyl)urea] | 94% | 61 nM | 0%
10 | CC(=O)Nc1cc(-n2cccn2)cc(-n2cnc3cc(-c4cnn(CC5CC5)c4)ccc32)c1 [Example 127, N-(3-(5-(1-(cyclopropylmethyl)-1H-pyrazol-4-yl)-1H-benzo[d]imidazol-1-yl)-5-(1H-pyrazol-1-yl)phenyl)acetamide] | 91% | 62 nM | 10%
11 | CC(=O)Nc1cc(-c2ccc(F)cc2F)cc(-n2cnc3cc(-c4cnn(C)c4)cnc32)c1 [Example 131, N-(2′,4′-difluoro-5-(6-(1-methyl-1H-pyrazol-4-yl)-3H-imidazo[4,5-b]pyridin-3-yl)biphenyl-3-yl)acetamide] | 99% | 1.3 nM | 15%
